{"source": "patent US12077503B2", "about": "“Substituted cyclic amides and their use as herbicides” (FMC CORPORATION, priority 2015, dated 2024)", "assay_type_in_all_cases": "in vivo", "key": {"[1]": {"test_system": "ryegrass, Italian (Italian ryegrass, Lolium multiflorum)", "test": "Test A preemergence", "details": "Lolium multiflorum, pre-emergence, 240 h, 0 to 100 scale where 0 is no effect and 100 is complete control, read-out: Ryegrass, Italian plant response rating", "outline": "(§1)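 Seeded soil received test chemicals as a preemergence directed spray, and seedlings at one to two leaves, 2–10 cm tall, received them postemergence, in a non-phytotoxic, surfactant-containing solvent mixture. Pots were held in a greenhouse for approximately 10 d, then rated for injury from 0, no effect, to 100, complete control.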"}, "[2]": {"test_system": "pigweed (Amaranthus retroflexus)", "test": "Test A preemergence", "details": "Amaranthus retroflexus, pre-emergence, 240 h, 0 to 100 scale where 0 is no effect and 100 is complete control, read-out: Pigweed plant response rating"}, "[3]": {"test_system": "barnyardgrass (Echinochloa crus-galli)", "test": "Test A preemergence", "details": "Echinochloa crus-galli, pre-emergence, 240 h, Preemergence", "outline": "as §1"}, "[4]": {"test_system": "Kochia (Kochia scoparia)", "test": "Test A preemergence", "details": "Bassia scoparia, pre-emergence, 240 h, 0 to 100 scale where 0 is no effect and 100 is complete control, read-out: Kochia plant response rating", "outline": "as §1"}, "[5]": {"test_system": "giant foxtail (Setaria faberii)", "test": "Test A preemergence", "details": "Setaria faberi, pre-emergence, 240 h, Preemergence", "outline": "as §1"}, "[6]": {"test_system": "ragweed (common ragweed, Ambrosia elatior)", "test": "Test A preemergence", "details": "Ambrosia artemisiifolia, pre-emergence, 240 h, 0 to 100 scale where 0 is no effect and 100 is complete control, read-out: Ragweed plant response rating", "outline": "as §1"}, "[7]": {"test_system": "ryegrass, Italian (Italian ryegrass, Lolium multiflorum)", "test": "Test A postemergence", "details": "Lolium multiflorum, post-emergence, 240 h", "outline": "as §1"}, "[8]": {"test_system": "pigweed (Amaranthus retroflexus)", "test": "Test A postemergence", "details": "Amaranthus retroflexus, post-emergence, 240 h", "outline": "as §1"}, "[9]": {"test_system": "barnyardgrass (Echinochloa crus-galli)", "test": "Test A postemergence", "details": "Echinochloa crus-galli, post-emergence, 240 h", "outline": "as §1"}, "[10]": {"test_system": "Galium (catchweed bedstraw, Galium aparine)", "test": "Test A postemergence", "details": "Galium, post-emergence, 240 h", "outline": "as §1"}, "[11]": {"test_system": "Kochia (Kochia scoparia)", "test": "Test A postemergence", "details": "Bassia scoparia, post-emergence, 240 h", "outline": "as §1"}, "[12]": {"test_system": "wheat (Triticum aestivum)", "test": "Test A postemergence", "details": "Triticum aestivum, post-emergence, 240 h", "outline": "as §1"}, "[13]": {"test_system": "blackgrass (Alopecurus myosuroides)", "test": "Test A postemergence", "details": "Alopecurus myosuroides, post-emergence, 240 h", "outline": "as §1"}, "[14]": {"test_system": "giant foxtail (Setaria faberii)", "test": "Test A postemergence", "details": "Setaria faberi, post-emergence, 240 h", "outline": "as §1"}, "[15]": {"test_system": "ragweed (common ragweed, Ambrosia elatior)", "test": "Test A postemergence", "details": "Ambrosia artemisiifolia, post-emergence, 240 h", "outline": "as §1"}, "[16]": {"test_system": "corn (Zea mays)", "test": "Test A postemergence", "details": "Zea mays, post-emergence, 240 h", "outline": "as §1"}, "[17]": {"test_system": "sedge, umbrella (small-flower umbrella sedge, Cyperus difformis)", "test": "Test B flooded paddy test", "details": "Cyperus difformis, 250 g ai/ha, Flood; 0 to 100 scale where 0 is no effect and 100 is complete control; read-out: Sedge, Umbrella plant response rating", "outline": "(§2)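 Flooding to 3 cm over soil accompanied treatment, which consisted of adding compound to the standing water around 2-leaf plants; depth was then maintained. Visual assessment versus controls followed at 13 to 15 d (scale 0–100, 0 meaning no effect).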"}, "[18]": {"test_system": "barnyardgrass (Echinochloa crus-galli)", "test": "Test B flooded paddy test", "details": "Echinochloa crus-galli, 250 g ai/ha, Flood; 0 to 100 scale where 0 is no effect and 100 is complete control; read-out: Barnyardgrass plant response rating", "outline": "as §2"}, "[19]": {"test_system": "rice (Oryra sativa)", "test": "Test B flooded paddy test", "details": "Oryza sativa, 250 g ai/ha, Flood; 0 to 100 scale where 0 is no effect and 100 is complete control; read-out: Rice plant response rating", "outline": "as §2"}, "[20]": {"test_system": "ducksalad (Heteranthera limosa)", "test": "Test B flooded paddy test", "details": "Heteranthera limosa, 250 g ai/ha, Flood; 0 to 100 scale where 0 is no effect and 100 is complete control; read-out: Ducksalad plant response rating", "outline": "as §2"}, "[21]": {"details": "125 g ai/ha, preemergence, approx. 10 d"}}}
{"smiles": "COc1cccc([C@H]2CNC(=O)[C@@H]2C(=O)Nc2cccc(F)c2F)c1F", "note": "[Compound 1061]", "values": [{"measurement": "pest or weed control at 31 g/ha", "setting": "[1]; 31 g ai/ha, Preemergence", "value": 0, "unit": "%"}, {"measurement": "pest or weed control at 125 g/ha", "setting": "[1]; [21]", "value": 0, "unit": "%"}, {"measurement": "pest or weed control at 31 g/ha", "setting": "[2]; 31 g ai/ha, Preemergence", "value": 0, "unit": "%"}, {"measurement": "pest or weed control at 125 g/ha", "setting": "[2]; [21]", "value": 0, "unit": "%"}, {"measurement": "pest or weed control at 31 g/ha", "setting": "[3]; 31 g ai/ha, 0 to 100 scale where 0 is no effect and 100 is complete control, read-out: Barnyardgrass plant response rating", "value": 40, "unit": "%"}, {"measurement": "pest or weed control at 125 g/ha", "setting": "[3]; 125 g ai/ha, visual injury rating after approximately 10 d, read-out: Barnyardgrass plant response rating (0 to 100 scale, 0 is no effect, 100 is complete control)", "value": 80, "unit": "%"}, {"measurement": "pest or weed control at 31 g/ha", "setting": "[4]; 31 g ai/ha, Preemergence", "value": 0, "unit": "%"}, {"measurement": "pest or weed control at 125 g/ha", "setting": "[4]; [21]", "value": 0, "unit": "%"}, {"measurement": "pest or weed control at 31 g/ha", "setting": "[5]; 31 g ai/ha, 0 to 100 scale where 0 is no effect and 100 is complete control, read-out: Foxtail, Giant plant response rating", "value": 20, "unit": "%"}, {"measurement": "pest or weed control at 125 g/ha", "setting": "[5]; 125 g ai/ha, visual injury rating after approximately 10 d, read-out: Foxtail, Giant plant response rating (0 to 100 scale, 0 is no effect, 100 is complete control)", "value": 70, "unit": "%"}, {"measurement": "pest or weed control at 31 g/ha", "setting": "[6]; 31 g ai/ha, Preemergence", "value": 0, "unit": "%"}, {"measurement": "pest or weed control at 125 g/ha", "setting": "[6]; [21]", "value": 0, "unit": "%"}, {"measurement": "pest or weed control at 125 g/ha", "setting": "[7]; 125 g ai/ha, postemergence, visual injury on 0 to 100 scale (0 no effect, 100 complete control), approx. 10 d, read-out: Ryegrass, Italian plant response rating", "value": 0, "unit": "%"}, {"measurement": "pest or weed control at 31 g/ha", "setting": "[7]; Postemergence, 31 g ai/ha, visual injury after approx. 10 d, 0 to 100 scale, 0 no effect, 100 complete control, read-out: Plant response rating, Ryegrass, Italian", "value": 0, "unit": "%"}, {"measurement": "pest or weed control at 125 g/ha", "setting": "[8]; 125 g ai/ha, postemergence, visual injury on 0 to 100 scale (0 no effect, 100 complete control), approx. 10 d, read-out: Pigweed plant response rating", "value": 0, "unit": "%"}, {"measurement": "pest or weed control at 31 g/ha", "setting": "[8]; Postemergence, 31 g ai/ha, visual injury after approx. 10 d, 0 to 100 scale, 0 no effect, 100 complete control, read-out: Plant response rating, Pigweed", "value": 0, "unit": "%"}, {"measurement": "pest or weed control at 125 g/ha", "setting": "[9]; 125 g ai/ha, postemergence, visual injury on 0 to 100 scale (0 no effect, 100 complete control), approx. 10 d, read-out: Barnyardgrass plant response rating", "value": 80, "unit": "%"}, {"measurement": "pest or weed control at 31 g/ha", "setting": "[9]; Postemergence, 31 g ai/ha, visual injury after approx. 10 d, 0 to 100 scale, 0 no effect, 100 complete control, read-out: Plant response rating, Barnyardgrass", "value": 50, "unit": "%"}, {"measurement": "pest or weed control at 125 g/ha", "setting": "[10]; 125 g ai/ha, postemergence, visual injury on 0 to 100 scale (0 no effect, 100 complete control), approx. 10 d, read-out: Galium plant response rating", "value": 0, "unit": "%"}, {"measurement": "pest or weed control at 31 g/ha", "setting": "[10]; Postemergence, 31 g ai/ha, visual injury after approx. 10 d, 0 to 100 scale, 0 no effect, 100 complete control, read-out: Plant response rating, Galium", "value": 0, "unit": "%"}, {"measurement": "pest or weed control at 125 g/ha", "setting": "[11]; 125 g ai/ha, postemergence, visual injury on 0 to 100 scale (0 no effect, 100 complete control), approx. 10 d, read-out: Kochia plant response rating", "value": 0, "unit": "%"}, {"measurement": "pest or weed control at 31 g/ha", "setting": "[11]; Postemergence, 31 g ai/ha, visual injury after approx. 10 d, 0 to 100 scale, 0 no effect, 100 complete control, read-out: Plant response rating, Kochia", "value": 0, "unit": "%"}, {"measurement": "plant injury at 125 g/ha", "setting": "[12]; 125 g ai/ha, postemergence, visual injury on 0 to 100 scale (0 no effect, 100 complete control), approx. 10 d, read-out: Wheat plant response rating", "value": 0, "unit": "%"}, {"measurement": "plant injury at 31 g/ha", "setting": "[12]; Postemergence, 31 g ai/ha, visual injury after approx. 10 d, 0 to 100 scale, 0 no effect, 100 complete control, read-out: Plant response rating, Wheat", "value": 0, "unit": "%"}, {"measurement": "pest or weed control at 125 g/ha", "setting": "[13]; 125 g ai/ha, postemergence, visual injury on 0 to 100 scale (0 no effect, 100 complete control), approx. 10 d, read-out: Blackgrass plant response rating", "value": 0, "unit": "%"}, {"measurement": "pest or weed control at 31 g/ha", "setting": "[13]; Postemergence, 31 g ai/ha, visual injury after approx. 10 d, 0 to 100 scale, 0 no effect, 100 complete control, read-out: Plant response rating, Blackgrass", "value": 0, "unit": "%"}, {"measurement": "pest or weed control at 125 g/ha", "setting": "[14]; 125 g ai/ha, postemergence, visual injury on 0 to 100 scale (0 no effect, 100 complete control), approx. 10 d, read-out: Foxtail, Giant plant response rating", "value": 20, "unit": "%"}, {"measurement": "pest or weed control at 31 g/ha", "setting": "[14]; Postemergence, 31 g ai/ha, visual injury after approx. 10 d, 0 to 100 scale, 0 no effect, 100 complete control, read-out: Plant response rating, Foxtail, Giant", "value": 0, "unit": "%"}, {"measurement": "pest or weed control at 125 g/ha", "setting": "[15]; 125 g ai/ha, postemergence, visual injury on 0 to 100 scale (0 no effect, 100 complete control), approx. 10 d, read-out: Ragweed plant response rating", "value": 0, "unit": "%"}, {"measurement": "pest or weed control at 31 g/ha", "setting": "[15]; Postemergence, 31 g ai/ha, visual injury after approx. 10 d, 0 to 100 scale, 0 no effect, 100 complete control, read-out: Plant response rating, Ragweed", "value": 0, "unit": "%"}, {"measurement": "plant injury at 125 g/ha", "setting": "[16]; 125 g ai/ha, postemergence, visual injury on 0 to 100 scale (0 no effect, 100 complete control), approx. 10 d, read-out: Corn plant response rating", "value": 0, "unit": "%"}, {"measurement": "Corn plant response rating (crop injury, 0 = no effect, 100 = complete kill) at 31 g/ha", "setting": "[16]; Postemergence, 31 g ai/ha, visual injury after approx. 10 d, 0 to 100 scale, 0 no effect, 100 complete control", "value": 0, "unit": "%"}, {"measurement": "pest or weed control at 250 g/ha", "setting": "[17]", "value": 0, "unit": "%"}, {"measurement": "pest or weed control at 250 g/ha", "setting": "[18]", "value": 60, "unit": "%"}, {"measurement": "pest or weed control at 250 g/ha", "setting": "[19]", "value": 15, "unit": "%"}, {"measurement": "pest or weed control at 250 g/ha", "setting": "[20]", "value": 95, "unit": "%"}]}
